Reference: US20210315840A1, “SOLID ORAL DOSAGE FORMS OF KETAMINE DERIVATIVES” (priority 2017, published 2021)

What was measured:
5-HT transporter = 5-HT transporter (Homo sapiens, UniProt P31645); assay: Binding assay 5-HT transporter
Description: 2R,6R-hydroxynorketamine was investigated for binding to monoamine oxidases A and B, monoamine transporters, as well as a variety of 5HT receptors.

CYP1A2 = molecular target: T1, CYP1A2 (Homo sapiens, UniProt P05177); assay: CYP inhibition assay CYP1A2; assay type: in vitro ADME
T1 sequence (P05177 1-516): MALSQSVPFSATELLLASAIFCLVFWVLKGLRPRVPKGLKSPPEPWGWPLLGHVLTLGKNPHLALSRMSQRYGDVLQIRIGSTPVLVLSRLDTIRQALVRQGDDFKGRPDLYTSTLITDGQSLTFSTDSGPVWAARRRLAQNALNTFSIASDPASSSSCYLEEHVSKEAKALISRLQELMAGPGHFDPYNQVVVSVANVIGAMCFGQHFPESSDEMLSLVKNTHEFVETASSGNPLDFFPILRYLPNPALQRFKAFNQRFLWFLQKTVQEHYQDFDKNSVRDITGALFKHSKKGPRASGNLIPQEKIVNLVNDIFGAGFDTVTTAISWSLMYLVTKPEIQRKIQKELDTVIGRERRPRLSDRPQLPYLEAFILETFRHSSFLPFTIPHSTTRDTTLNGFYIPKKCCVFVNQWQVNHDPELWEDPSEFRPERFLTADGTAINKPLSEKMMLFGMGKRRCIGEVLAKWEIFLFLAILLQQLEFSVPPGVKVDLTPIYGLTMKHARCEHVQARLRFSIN
Description: Cytochrome P450s (CYPs) are a family of enzymes that play a primary role in the metabolism of a wide variety of drugs. 2R,6R-hydroxynorketamine was investigated for its potential to inhibit the action of 7 key CYP enzymes using an inhibition assay measuring reduction in the formation of metabolites compared to control.

Sequence of 5-HT transporter (P31645 whole entry, species assumed): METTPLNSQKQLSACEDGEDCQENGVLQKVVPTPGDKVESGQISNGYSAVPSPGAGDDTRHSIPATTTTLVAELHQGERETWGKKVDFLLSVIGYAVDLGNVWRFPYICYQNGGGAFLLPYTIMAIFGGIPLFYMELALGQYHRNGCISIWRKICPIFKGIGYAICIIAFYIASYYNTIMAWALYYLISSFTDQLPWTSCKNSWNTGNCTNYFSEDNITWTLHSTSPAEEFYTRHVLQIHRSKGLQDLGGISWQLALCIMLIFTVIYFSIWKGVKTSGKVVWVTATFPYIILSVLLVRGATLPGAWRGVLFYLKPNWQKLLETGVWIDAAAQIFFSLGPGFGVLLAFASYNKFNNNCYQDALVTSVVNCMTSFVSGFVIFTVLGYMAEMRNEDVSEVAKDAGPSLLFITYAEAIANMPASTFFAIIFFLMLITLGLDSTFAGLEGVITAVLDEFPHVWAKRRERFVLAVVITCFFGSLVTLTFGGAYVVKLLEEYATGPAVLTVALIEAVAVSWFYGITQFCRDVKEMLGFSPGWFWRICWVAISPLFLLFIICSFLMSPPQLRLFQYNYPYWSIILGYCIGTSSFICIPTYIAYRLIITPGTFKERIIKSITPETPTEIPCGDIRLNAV

N[C@@]1(c2ccccc2Cl)CCC[C@@H](O)C1=O [2R,6R-hydroxynorketamine, 2R,6R-2-(2-Chlorophenyl)-2-(amino)-6-hydroxycyclohexanone]
% Inhibition of Control Specific Binding (5-HT transporter): 2%
% of Control Specific Binding (5-HT transporter): 102.0%
IC50 (CYP1A2): ~100 µM
% Inhibition (CYP1A2; 0.4 μM): 7.55%
% Inhibition (CYP1A2; 1 μM): 8.80%
% Inhibition (CYP1A2; 4 μM): 11.7%
% Inhibition (CYP1A2; 10 μM): 19.3%
% Inhibition (CYP1A2; 40 μM): 24.8%
% Inhibition (CYP1A2; 100 μM): 48.6%
